Key:
Format in all cases: functional
[1] = test system: A549; test: Cytotoxicity against human A549 cells after 72 hrs by SRB assay; details: A549, 72 h
[2] = test system: LoVo; test: Cytotoxicity against human doxorubicin-resistant LoVo cells after 72 hrs by SRB assay
[3] = test system: K562; test: Cytotoxicity against human K562 cells after 72 hrs by SRB assay; details: K562, 72 h
[4] = test system: PANC-1; test: Cytotoxicity against human PANC1 cells after 72 hrs by SRB assay; details: PANC-1, 72 h
[5] = test system: SK-MEL-28; test: Cytotoxicity against human SK-MEL-28 cells after 72 hrs by SRB assay; details: SK-MEL-28, 72 h
[6] = test system: SK-BR-3; test: Cytotoxicity against human SK-BR-3 cells after 72 hrs by SRB assay; details: SK-BR-3, 72 h
[7] = Cytotoxicity against human IGROV-ET cells after 72 hrs by SRB assay
[8] = test system: DU-145; test: Cytotoxicity against human DU145 cells after 72 hrs by SRB assay; details: DU-145, 72 h
[9] = test system: SK-OV-3; test: Cytotoxicity against human SKOV3 cells after 72 hrs by SRB assay; details: SK-OV-3, 72 h
[10] = test system: LNCaP; test: Cytotoxicity against human LNCAP cells after 72 hrs by SRB assay
[11] = test system: LoVo; test: Cytotoxicity against human LoVo cells after 72 hrs by SRB assay
[12] = test system: HT-29; test: Cytotoxicity against human HT29 cells after 72 hrs by SRB assay; details: HT-29, 72 h
[13] = Cytotoxicity against human IGROV cells after 72 hrs by SRB assay

Measured: GI50

C[C@H]1CC[C@@]23C[C@]2(C)CCC[C@@H]3[C@@]1(C)CC[C@@]1(C)CCn2cnc3ncnc(c32)N1O [ASMARINE I]
5 µM: [1] | [2] | [3] | [4] | [5] | [6] | [7] | [8] | [9] | [10] | [11] | [12] | [13]

C[C@H]1CC[C@@]23C[C@]2(C)CCC[C@@H]3[C@@]1(C)CC[C@@]1(C)CCn2cnc3ncnc(c32)N1 [ASMARINE J]
5 µM: [1] | [2] | [3] | [4] | [5] | [6] | [7] | [8] | [9] | [10] | [11] | [12] | [13]

C=C1CCC[C@@H]2[C@@](C)(CC[C@@]3(C)CCn4cnc5ncnc(c54)N3)[C@H](C)CC[C@@]12C [ASMARINE K]
5 µM: [1] | [2] | [3] | [4] | [5] | [6] | [7] | [8] | [9] | [10] | [11] | [12] | [13]
